According to patent US12622899B2 (PureTech LYT 100, Inc., priority 2018, dated 2026):
“Also recorded” adds a separate entry of the source.

Key:
clinical = details: both sexes, human, in vivo, 550 mg
Procedure: Over-encapsulation was utilized to maintain study blind. […] Approximately 50 older healthy female and male adult subjects (1:1 ratio) were randomized into 1 of 2 cohorts:Cohort 1 or Cohort 2, N=˜25 subjects per cohort.
There was a single AM fasting dose on Day 4 for both drugs. There was a 6-day wash-out period between drug cross-over.
Subjects were discharged on Day 4 following successful completion of all assessments and at the Investigator's discretion.
Subjects were then administered a single dose of their randomized treatment on the morning of Day 14 following an overnight fast of at least 8 hours. Subjects were discharged on Day 14 following successful completion of all assessments and at the Investigator's discretion.
An evening snack was served ≥3 hours following evening study medication administration. On Day 4 (Treatment Period 1) and Day 14 (Treatment Period 2), subjects were administered their assigned study drug once in the morning following an overnight fast of at least 8 hours (with approximately 240 mL of non-carbonated water). No additional fluids were allowed during the 1 hour pre- and post-dose.
Blood samples for PK were collected for Cohorts 1 and 2 at specified times during both periods, as follows: • Days 1 & 11:0 (pre-morning dose) • Days 2 & 12: no sampling. • Days 3 & 13:0 (pre-morning dose), and 1, 2, 3, 4, 6 (pre-mid-day dose), 7, 8, 9, 10, 12 (pre-evening dose), 13, 14, 15, 16, and 17 hours post-morning dose • Days 4 & 14:0 (pre-morning dose), and 1, 2, 3, 4, 6 (post-dose),

[1] = tested on: patients with Idiopathic Pulmonary Fibrosis (IPF); experiment: IPF trial Part A: safety and tolerability (TEAEs, AESI, dose modifications, discontinuations); assay type: in vivo
Procedure: The primary objective was to determine the dose(s) to carry into Phase 3. […] Patients were randomized to one of the four treatments in a 1:1:1:1 ratio and stratified based on prior exposure to nintedanib (<6 months) versus nintedanib-naïve patients. Patients who completed the Double-blind Treatment Period (Part A) were offered participation in the Long-term Extension (Part B). […] For patients who participated in Part B, the follow-up was conducted at the end of Part B. A graphical illustration of an embodiment of the trial design is provided as FIG. 24B.
Safety endpoints included: Adverse events, concomitant medications, clinical laboratory findings (chemistry, hematology, urinalysis), physical examinations, ECGs, and vital signs. These will be summarized descriptively, where appropriate.
Tolerability endpoints included: Frequency of dose modifications (reductions and interruptions), time to first dose modification, (reduction or interruption), duration of adverse events of special interest, time to treatment discontinuation due to an adverse event of special interest and patient reported assessment of IPF symptoms, side-effects, severity, change and satisfaction.
In this study, AEs are reported for all patients from the time of consent until the completion of the Follow-up visit. AEs reported prior to the first dose are denoted as pre-treatment. SAEs are reported for all patients (randomized or not) from the time of consent. AEs reported from the time of consent to confinement on Day 0 were recorded as pre-treatment AEs.
Treatment emergent adverse events (TEAEs) are defined as an AE that occurs following first dose of study medication and were evaluated from the first administration of study drug on Day 1 until the Follow-up visit. […]
This study evaluated in particular the tolerability based on prioritized gastrointestinal adverse events (GI AEs). […]

CYP1A2 = molecular target: T1, CYP1A2 (Homo sapiens, UniProt P05177); experiment: In vitro stability with recombinant human CYP1A2; assay type: in vitro ADME; details: recombinant human isozyme; read-out: t1/2 following incubation with CYP1A2 (converted)
T1 construct: host or cells: heterologous cell systems (not specified)
T1 sequence (P05177 1-516): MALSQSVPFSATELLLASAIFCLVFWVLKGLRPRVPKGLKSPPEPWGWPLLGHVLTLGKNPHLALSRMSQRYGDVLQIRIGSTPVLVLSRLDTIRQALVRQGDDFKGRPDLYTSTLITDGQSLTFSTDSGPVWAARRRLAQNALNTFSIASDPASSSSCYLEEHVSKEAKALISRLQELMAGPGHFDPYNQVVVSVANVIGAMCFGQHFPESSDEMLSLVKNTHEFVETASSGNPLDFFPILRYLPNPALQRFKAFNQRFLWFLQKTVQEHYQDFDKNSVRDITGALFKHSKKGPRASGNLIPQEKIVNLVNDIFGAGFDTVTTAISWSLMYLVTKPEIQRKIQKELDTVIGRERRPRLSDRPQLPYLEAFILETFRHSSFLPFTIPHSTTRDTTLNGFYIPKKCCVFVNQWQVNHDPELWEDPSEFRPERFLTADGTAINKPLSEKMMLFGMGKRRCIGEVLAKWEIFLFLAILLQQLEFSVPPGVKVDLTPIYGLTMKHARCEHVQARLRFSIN
Procedure: The half-life (t½) of each test article was determined.

[2] = tested on: rat BLM induced lung fibrosis model; experiment: Rat bleomycin induced lung fibrosis model, Phase II (efficacy); details: bleomycin rats, LYT-100 400 mg/kg QD / nintedanib 60 mg/kg BID
Procedure: For Groups 4, 5, 6, and 7, bleomycin and vehicle dosing were conducted as indicated in Table 28 (0.45 mg/kg, at 1696 IU/mg of Bleomycin or saline on Day 1, 2, 3, 6 and 7).

SMILES: [2H]C([2H])([2H])c1ccc(=O)n(-c2ccccc2)c1 [LYT-100, 5-(methyl-d3)-1-phenylpyridin-2-(1H)-one]
- AUC(0-t) (clinical; AUC0-24, parent): 34100 ng·h/mL
- Cmax (clinical; Cmax, parent): 9170 ng/mL
- Discontinued, Primary Reason: Death ([1]; 550 mg TID (N = 65)): 0 n (%)
- Discontinued, Primary Reason: Death ([1]; 825 mg TID (N = 64)): 0 n (%)
- half-life (CYP1A2): 9.08 h
- hydroxyproline content (μg per mg of wet lung) vs bleomycin/vehicle ([2]; Day 8-27): reduced the hydroxyproline content; also recorded: reduced lung hydroxyproline content
- lung fibrosis scores (histopathology) vs bleomycin/vehicle ([2]; Day 8-27): did not affect the fibrosis scores
- lung sections with fibrosis Score 1 ([2]; Day 8-27): 33%
- lung sections with fibrosis Score 2 ([2]; Day 8-27): 36%
- mean lung weight vs bleomycin/vehicle ([2]; Day 8-27): did not affect mean lung weight
- median lung fibrosis scores vs bleomycin/vehicle ([2]; Day 8-27): reduced median fibrosis scores
- total left lung hydroxyproline (μg per left lung) vs bleomycin/vehicle ([2]; Day 8-27): did not affect total hydroxyproline levels
- body weight gain ([2]; oral gavage Day 8-27): resumed and at a rate similar to Group 4; also recorded: did not negatively affect body weight developments
